Assay results published in US20150153326A1, “QUANTITATIVE ANALYSIS OF CONTACT-DEPENDENT CELL-TO-CELL TRANSFER AND DISEASE TRANSMISSION” (Bergen Teknologioverforing AS, BTO, priority 2013, published 2015).

System: HeLa-Kyoto cells
Assay: contact-dependent cell-to-cell DiD organelle transfer, DiD-stained/unstained 1:400 co-culture, 3D confocal quantification
Assay type: cell-based
Settings: 100 nM, added 2 hours after plating, cells fixed after 18 hours, 1:400 cell ratio
Description: HeLa-Kyoto cells were cultured in DMEM:F12 supplemented with 10% fetal calf serum and 1% penicillin/streptomycin (Invitrogen Detection Technologies, Carlsbad, Calif., USA) on 24-well microscopy plates (Greiner Bio-One GmbH). Cells were maintained under humidified air supplemented with 5% CO2 at 37° C. and plated with a density of approximately 35 000 cells/cm^2. After 24 hours, 200 ng (5 μl)/ml lipid analog Vybrant® DiD Cell-Labelling solution (Invitrogen Detection Technologies, Carlsbad, Calif., USA) was added to the plated cells in culture medium, incubated at 37° C. for 20 min wherein tilted 5 times. After the incubation period, the culture medium was exchanged 4 times within 2 hours. […]
Cells were imaged with a Leica confocal SP5 in resonant scanner mode (zoom 1.7; pinhole airyl; 40× 1.25NA oil immersion objective; 512×512 pixel; z-distance 1.01 μm, line-average 16; offset −1; gain 900-1000V. For the DiD-channel laser power was adjusted for each experiment to a strength resulting in approximately half a cell diameter of out-of-detection range data for average donor cells in order to quantify the transferred DiD in the surrounding cells, present in much lower quantities. For all other channels, the laser power was adjusted to few out-of-detection range pixels at the upper end of the scale. […]

## C=C1[C@@H](C)[C@H]2[C@H](Cc3ccccc3)NC(=O)[C@]23[C@H](OC(C)=O)/C=C/[C@@](C)(O)C(=O)[C@@H](C)C/C=C/[C@H]3[C@@H]1O [Cytochalasin D]
  contact-dependent cell-to-cell DiD transfer (integrated intensity of DiD signal inside acceptor cells) compared to control: substantially inhibited
